Laboratory results published in ChEMBL document CHEMBL4507300 (2021).

Legend:
[1] = biological target: Calcium/calmodulin-dependent protein kinase type 1 (Homo sapiens) (UniProt Q14012); conditions: Compound concentration 1000.0 nM
[2] = biological target: Mitogen-activated protein kinase kinase kinase 3 (Homo sapiens) (UniProt Q99759); conditions: Compound concentration 1000.0 nM
[3] = biological target: Serine/threonine-protein kinase TAO3 (Homo sapiens) (UniProt Q9H2K8); conditions: Compound concentration 1000.0 nM
[4] = biological target: Sodium-dependent noradrenaline transporter (Homo sapiens) (UniProt P23975); conditions: Compound concentration 10.0 uM
[5] = tested on: eIF-2-alpha kinase GCN2 (Homo sapiens), Q9P2K8 [S808G]; conditions: Compound concentration 1000.0 nM
eIF-2-alpha kinase GCN2 (Homo sapiens), Q9P2K8 [S808G], sequence (Q9P2K8 whole entry S808G): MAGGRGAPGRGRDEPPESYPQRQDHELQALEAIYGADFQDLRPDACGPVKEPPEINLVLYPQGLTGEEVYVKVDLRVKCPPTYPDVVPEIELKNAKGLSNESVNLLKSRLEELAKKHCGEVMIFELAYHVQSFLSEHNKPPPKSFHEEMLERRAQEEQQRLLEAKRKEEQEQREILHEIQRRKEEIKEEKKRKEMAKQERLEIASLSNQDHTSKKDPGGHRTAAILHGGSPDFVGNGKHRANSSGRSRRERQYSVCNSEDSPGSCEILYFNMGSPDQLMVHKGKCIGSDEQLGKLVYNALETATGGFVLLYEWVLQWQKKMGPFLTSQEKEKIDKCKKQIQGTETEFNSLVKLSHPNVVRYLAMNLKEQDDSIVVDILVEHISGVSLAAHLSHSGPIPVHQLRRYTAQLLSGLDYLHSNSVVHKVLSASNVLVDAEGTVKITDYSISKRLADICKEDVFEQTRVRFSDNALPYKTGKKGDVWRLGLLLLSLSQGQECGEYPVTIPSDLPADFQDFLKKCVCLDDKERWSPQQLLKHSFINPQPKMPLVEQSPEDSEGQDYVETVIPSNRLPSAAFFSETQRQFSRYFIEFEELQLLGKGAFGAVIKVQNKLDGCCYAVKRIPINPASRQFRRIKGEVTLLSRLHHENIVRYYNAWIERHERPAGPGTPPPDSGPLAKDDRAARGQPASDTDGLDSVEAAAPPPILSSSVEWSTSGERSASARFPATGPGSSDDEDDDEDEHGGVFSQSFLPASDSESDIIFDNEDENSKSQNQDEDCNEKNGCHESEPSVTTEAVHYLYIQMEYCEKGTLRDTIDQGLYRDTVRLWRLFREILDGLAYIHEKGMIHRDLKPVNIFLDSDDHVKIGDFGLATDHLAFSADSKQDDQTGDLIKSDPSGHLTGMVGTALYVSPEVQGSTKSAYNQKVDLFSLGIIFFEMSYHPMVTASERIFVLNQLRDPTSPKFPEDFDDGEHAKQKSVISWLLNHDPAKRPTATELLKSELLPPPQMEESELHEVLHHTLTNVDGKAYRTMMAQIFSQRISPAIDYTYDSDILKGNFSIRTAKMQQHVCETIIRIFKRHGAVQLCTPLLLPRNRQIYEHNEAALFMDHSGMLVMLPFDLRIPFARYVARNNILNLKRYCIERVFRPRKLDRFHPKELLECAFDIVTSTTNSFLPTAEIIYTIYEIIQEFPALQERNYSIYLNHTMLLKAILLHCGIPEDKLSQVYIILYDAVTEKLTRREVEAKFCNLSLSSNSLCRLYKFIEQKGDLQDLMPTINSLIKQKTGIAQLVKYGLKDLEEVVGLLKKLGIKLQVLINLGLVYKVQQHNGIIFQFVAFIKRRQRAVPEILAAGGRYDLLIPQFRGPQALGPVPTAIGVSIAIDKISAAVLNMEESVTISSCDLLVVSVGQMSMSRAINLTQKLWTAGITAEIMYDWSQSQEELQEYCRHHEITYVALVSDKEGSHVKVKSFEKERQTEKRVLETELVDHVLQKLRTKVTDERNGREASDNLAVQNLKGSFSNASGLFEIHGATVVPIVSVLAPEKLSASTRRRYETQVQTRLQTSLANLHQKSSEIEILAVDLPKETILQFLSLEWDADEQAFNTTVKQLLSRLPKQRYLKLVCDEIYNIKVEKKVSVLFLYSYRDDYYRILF

[6] = biological target: Myosin-IIIa (Homo sapiens) (UniProt Q8NEV4); conditions: Compound concentration 1000.0 nM
[7] = biological target: Macrophage colony-stimulating factor 1 receptor (Homo sapiens) (UniProt P07333); conditions: Compound concentration 1000.0 nM
[8] = biological target: Serine/threonine-protein kinase SIK1 (Homo sapiens) (UniProt P57059); conditions: Compound concentration 1000.0 nM
Serine/threonine-protein kinase SIK1 (Homo sapiens), sequence (P57059 whole entry): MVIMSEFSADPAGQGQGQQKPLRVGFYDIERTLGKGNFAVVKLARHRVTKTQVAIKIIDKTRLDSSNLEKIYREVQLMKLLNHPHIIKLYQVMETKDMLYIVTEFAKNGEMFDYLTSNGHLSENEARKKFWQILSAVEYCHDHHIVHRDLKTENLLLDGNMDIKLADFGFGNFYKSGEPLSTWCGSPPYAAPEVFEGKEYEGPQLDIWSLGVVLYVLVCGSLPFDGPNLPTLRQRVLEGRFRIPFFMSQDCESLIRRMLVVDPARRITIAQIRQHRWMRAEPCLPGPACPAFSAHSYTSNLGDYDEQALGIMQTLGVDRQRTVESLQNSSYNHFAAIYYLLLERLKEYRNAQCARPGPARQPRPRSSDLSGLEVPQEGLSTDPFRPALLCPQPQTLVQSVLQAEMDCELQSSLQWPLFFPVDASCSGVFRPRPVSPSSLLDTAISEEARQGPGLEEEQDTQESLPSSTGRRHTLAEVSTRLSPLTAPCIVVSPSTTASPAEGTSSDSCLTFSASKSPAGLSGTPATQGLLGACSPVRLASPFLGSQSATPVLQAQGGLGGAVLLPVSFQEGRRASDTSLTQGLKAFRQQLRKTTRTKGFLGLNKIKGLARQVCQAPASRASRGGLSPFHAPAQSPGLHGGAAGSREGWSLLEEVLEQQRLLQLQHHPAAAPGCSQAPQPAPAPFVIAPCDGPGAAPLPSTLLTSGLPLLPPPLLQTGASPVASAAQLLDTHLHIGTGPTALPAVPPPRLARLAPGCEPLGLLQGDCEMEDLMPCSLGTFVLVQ

[9] = biological target: Mitogen-activated protein kinase kinase kinase kinase 5 (Homo sapiens) (UniProt Q9Y4K4); conditions: Compound concentration 1000.0 nM
[10] = biological target: Death-associated protein kinase 3 (Homo sapiens) (UniProt O43293); conditions: Compound concentration 1000.0 nM
[11] = biological target: Protein kinase C iota type (Homo sapiens) (UniProt P41743); conditions: Compound concentration 1000.0 nM
[12] = biological target: Serine/threonine-protein kinase ULK1 (Homo sapiens) (UniProt O75385); conditions: Compound concentration 1000.0 nM
[13] = biological target: Insulin receptor-related protein (Homo sapiens) (UniProt P14616); conditions: Compound concentration 1000.0 nM
[14] = biological target: Fibroblast growth factor receptor 4 (Homo sapiens) (UniProt P22455); conditions: Compound concentration 1000.0 nM
[15] = biological target: Tyrosine-protein kinase ABL1 (Homo sapiens) (UniProt P00519); conditions: Compound concentration 1000.0 nM
[16] = biological target: Mitogen-activated protein kinase kinase kinase 15 (Homo sapiens) (UniProt Q6ZN16); conditions: Compound concentration 1000.0 nM
[17] = biological target: Cyclin-dependent kinase 19 (Homo sapiens) (UniProt Q9BWU1); conditions: Compound concentration 1000.0 nM
[18] = biological target: Tyrosine-protein kinase Fes/Fps (Homo sapiens) (UniProt P07332); conditions: Compound concentration 1000.0 nM
[19] = tested on: Proto-oncogene tyrosine-protein kinase receptor Ret (Homo sapiens), P07949 [M918T]; conditions: Compound concentration 1000.0 nM
[20] = biological target: Serine/threonine-protein kinase MAK (Homo sapiens) (UniProt P20794); conditions: Compound concentration 1000.0 nM
[21] = tested on: Phosphatidylinositol 4,5-bisphosphate 3-kinase catalytic subunit alpha isoform (Homo sapiens), P42336 [H1047Y]; conditions: Compound concentration 1000.0 nM
Phosphatidylinositol 4,5-bisphosphate 3-kinase catalytic subunit alpha isoform (Homo sapiens), P42336 [H1047Y], sequence (P42336 whole entry H1047Y, canonical isoform): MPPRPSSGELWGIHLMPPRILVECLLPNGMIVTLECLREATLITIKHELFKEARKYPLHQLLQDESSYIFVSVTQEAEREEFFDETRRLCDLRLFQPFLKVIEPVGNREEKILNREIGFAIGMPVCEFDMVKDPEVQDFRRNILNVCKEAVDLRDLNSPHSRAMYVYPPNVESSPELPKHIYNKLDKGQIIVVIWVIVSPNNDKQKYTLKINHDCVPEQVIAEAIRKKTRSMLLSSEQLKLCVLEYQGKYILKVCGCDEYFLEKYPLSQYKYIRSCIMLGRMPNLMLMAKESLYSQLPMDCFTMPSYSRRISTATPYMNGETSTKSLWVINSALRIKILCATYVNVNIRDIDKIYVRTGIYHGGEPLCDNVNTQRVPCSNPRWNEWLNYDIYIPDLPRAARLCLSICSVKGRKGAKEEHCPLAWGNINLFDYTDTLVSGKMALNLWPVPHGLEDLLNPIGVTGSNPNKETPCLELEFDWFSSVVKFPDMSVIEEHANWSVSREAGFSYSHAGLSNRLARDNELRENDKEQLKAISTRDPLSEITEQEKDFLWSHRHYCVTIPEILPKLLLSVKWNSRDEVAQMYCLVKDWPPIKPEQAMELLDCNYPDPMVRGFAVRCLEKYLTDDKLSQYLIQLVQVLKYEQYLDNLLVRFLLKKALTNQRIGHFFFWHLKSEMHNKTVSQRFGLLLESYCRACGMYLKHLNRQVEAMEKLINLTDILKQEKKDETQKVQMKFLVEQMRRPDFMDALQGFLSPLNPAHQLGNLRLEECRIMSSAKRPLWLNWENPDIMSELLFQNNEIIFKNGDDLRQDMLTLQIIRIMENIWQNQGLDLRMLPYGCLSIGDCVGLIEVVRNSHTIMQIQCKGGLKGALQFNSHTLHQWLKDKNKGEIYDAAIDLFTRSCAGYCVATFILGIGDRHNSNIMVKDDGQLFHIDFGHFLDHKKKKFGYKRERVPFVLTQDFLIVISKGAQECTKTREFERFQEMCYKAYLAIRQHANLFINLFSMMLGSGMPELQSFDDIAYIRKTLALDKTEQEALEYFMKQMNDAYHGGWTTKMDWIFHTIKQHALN

[22] = biological target: Serine/threonine-protein kinase 10 (Homo sapiens) (UniProt O94804); conditions: Compound concentration 1000.0 nM
[23] = biological target: Inhibitor of nuclear factor kappa-B kinase subunit epsilon (Homo sapiens) (UniProt Q14164); conditions: Compound concentration 1000.0 nM
[24] = biological target: Serine/threonine-protein kinase PLK2 (Homo sapiens) (UniProt Q9NYY3); conditions: Compound concentration 1000.0 nM
[25] = biological target: Non-receptor tyrosine-protein kinase TNK1 (Homo sapiens) (UniProt Q13470); conditions: Compound concentration 1000.0 nM
Non-receptor tyrosine-protein kinase TNK1 (Homo sapiens), sequence (Q13470 whole entry): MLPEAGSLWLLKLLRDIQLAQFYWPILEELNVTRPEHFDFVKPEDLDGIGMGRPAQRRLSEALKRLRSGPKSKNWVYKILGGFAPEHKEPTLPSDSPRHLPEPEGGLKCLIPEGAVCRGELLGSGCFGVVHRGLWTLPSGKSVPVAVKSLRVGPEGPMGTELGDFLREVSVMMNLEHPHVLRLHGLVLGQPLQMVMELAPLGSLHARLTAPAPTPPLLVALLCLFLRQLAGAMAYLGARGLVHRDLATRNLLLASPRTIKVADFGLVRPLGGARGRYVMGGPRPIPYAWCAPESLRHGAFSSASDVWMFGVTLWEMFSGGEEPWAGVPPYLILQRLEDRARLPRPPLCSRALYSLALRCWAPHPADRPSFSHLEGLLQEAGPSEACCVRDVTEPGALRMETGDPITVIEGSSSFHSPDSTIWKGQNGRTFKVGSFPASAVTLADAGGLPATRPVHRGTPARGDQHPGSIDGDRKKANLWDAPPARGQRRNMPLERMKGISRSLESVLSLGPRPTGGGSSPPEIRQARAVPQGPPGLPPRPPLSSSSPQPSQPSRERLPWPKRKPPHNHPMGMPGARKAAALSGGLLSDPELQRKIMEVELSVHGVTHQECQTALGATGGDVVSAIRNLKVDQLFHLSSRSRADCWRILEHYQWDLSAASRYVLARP

[26] = biological target: Tyrosine-protein kinase Srms (Homo sapiens) (UniProt Q9H3Y6); conditions: Compound concentration 1000.0 nM
[27] = biological target: Mitogen-activated protein kinase kinase kinase 6 (Homo sapiens) (UniProt O95382); conditions: Compound concentration 1000.0 nM
[28] = biological target: Mitogen-activated protein kinase kinase kinase 4 (Homo sapiens) (UniProt Q9Y6R4); conditions: Compound concentration 1000.0 nM
[29] = biological target: Tyrosine-protein kinase ABL1 (Homo sapiens) (UniProt P00519); conditions: Compound concentration 1000.0 nM; remark: listed apart in the source
[30] = tested on: Tyrosine-protein kinase ABL1 (Homo sapiens), P00519 [H396P]; conditions: Compound concentration 1000.0 nM
[31] = biological target: Calcium/calmodulin-dependent protein kinase type II subunit delta (Homo sapiens) (UniProt Q13557); conditions: Compound concentration 1000.0 nM
[32] = biological target: Protein-tyrosine kinase 2-beta (Homo sapiens) (UniProt Q14289); conditions: Compound concentration 1000.0 nM
[33] = biological target: Ribosomal protein S6 kinase alpha-2 (Homo sapiens) (UniProt Q15349); conditions: Compound concentration 1000.0 nM
[34] = tested on: Phosphatidylinositol 4,5-bisphosphate 3-kinase catalytic subunit alpha isoform (Homo sapiens), P42336 [H1047L]; conditions: Compound concentration 1000.0 nM
Phosphatidylinositol 4,5-bisphosphate 3-kinase catalytic subunit alpha isoform (Homo sapiens), P42336 [H1047L], sequence (P42336 whole entry H1047L, canonical isoform): as the sequence (P42336 whole entry H1047Y, canonical isoform) above, with Y1047L counted along it

[35] = biological target: Homeodomain-interacting protein kinase 1 (Homo sapiens) (UniProt Q86Z02); conditions: Compound concentration 1000.0 nM
[36] = tested on: Fibroblast growth factor receptor 3 (Homo sapiens), P22607 [G697C]; conditions: Compound concentration 1000.0 nM
[37] = biological target: Fibroblast growth factor receptor 1 (Homo sapiens) (UniProt P11362); conditions: Compound concentration 1000.0 nM
Fibroblast growth factor receptor 1 (Homo sapiens), sequence (P11362 22-822 limits assumed): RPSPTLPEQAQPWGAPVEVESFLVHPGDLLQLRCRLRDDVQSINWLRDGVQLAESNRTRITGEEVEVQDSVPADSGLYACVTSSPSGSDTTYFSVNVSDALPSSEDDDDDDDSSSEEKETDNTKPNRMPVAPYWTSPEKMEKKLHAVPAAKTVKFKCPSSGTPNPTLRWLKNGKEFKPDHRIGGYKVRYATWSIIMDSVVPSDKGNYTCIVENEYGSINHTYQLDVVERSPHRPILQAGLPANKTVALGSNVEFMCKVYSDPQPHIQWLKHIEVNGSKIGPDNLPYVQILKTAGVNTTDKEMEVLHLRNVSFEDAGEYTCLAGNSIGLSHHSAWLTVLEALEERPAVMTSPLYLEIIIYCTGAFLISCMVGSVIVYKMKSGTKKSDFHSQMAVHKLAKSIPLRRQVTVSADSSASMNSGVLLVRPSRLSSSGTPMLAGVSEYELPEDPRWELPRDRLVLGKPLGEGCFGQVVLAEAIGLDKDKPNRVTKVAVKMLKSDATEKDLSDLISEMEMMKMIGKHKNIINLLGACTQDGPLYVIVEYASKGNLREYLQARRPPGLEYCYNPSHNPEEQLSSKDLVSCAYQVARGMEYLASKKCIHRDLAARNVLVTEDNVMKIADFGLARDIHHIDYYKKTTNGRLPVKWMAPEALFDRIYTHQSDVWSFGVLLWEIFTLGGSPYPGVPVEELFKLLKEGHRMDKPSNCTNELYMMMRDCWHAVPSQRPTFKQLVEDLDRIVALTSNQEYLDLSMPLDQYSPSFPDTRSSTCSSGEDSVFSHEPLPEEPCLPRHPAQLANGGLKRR

[38] = biological target: Dual specificity protein kinase CLK1 (Homo sapiens) (UniProt P49759); conditions: Compound concentration 1000.0 nM
[39] = biological target: Platelet-derived growth factor receptor alpha (Homo sapiens) (UniProt P16234); conditions: Compound concentration 1000.0 nM
[40] = biological target: Serine/threonine-protein kinase WNK3 (Homo sapiens) (UniProt Q9BYP7); conditions: Compound concentration 1000.0 nM
[41] = biological target: Receptor-type tyrosine-protein kinase FLT3 (Homo sapiens) (UniProt P36888); conditions: Compound concentration 1000.0 nM
[42] = biological target: Mitogen-activated protein kinase kinase kinase 10 (Homo sapiens) (UniProt Q02779); conditions: Compound concentration 1000.0 nM
[43] = biological target: Atypical kinase COQ8A, mitochondrial (Homo sapiens) (UniProt Q8NI60); conditions: Compound concentration 1000.0 nM
[44] = biological target: Testis-specific serine/threonine-protein kinase 3 (Homo sapiens) (UniProt Q96PN8); conditions: Compound concentration 1000.0 nM
[45] = biological target: Serine/threonine-protein kinase PLK3 (Homo sapiens) (UniProt Q9H4B4); conditions: Compound concentration 1000.0 nM

COc1cccc(CNC(=O)c2nc3scc(COCc4ccc(C(=O)O)cc4)c3c(=O)[nH]2)c1 [T-26c]
inactive: residual activity [1] 88.2% | residual activity [2] 78.9% | residual activity [3] 72.3% | inhibition [4] 12.6% | residual activity [5] 100% | residual activity [6] 88% | residual activity [7] 100% | residual activity [8] 100% | residual activity [9] 87.3% | residual activity [10] 92.2% | residual activity [11] 100% | residual activity [12] 74% | residual activity [13] 100% | residual activity [14] 91.4% | residual activity [15] 68.6% | residual activity [16] 100% | residual activity [17] 100% | residual activity [18] 94.5% | residual activity [19] 89.5% | residual activity [20] 100% | residual activity [21] 100% | residual activity [22] 67.8% | residual activity [23] 83.9% | residual activity [24] 56.7% | residual activity [25] 100% | residual activity [26] 78.3% | residual activity [27] 74.5% | residual activity [28] 86.6% | residual activity [29] 85% | residual activity [30] 83.6% | residual activity [31] 100% | residual activity [32] 85.3% | residual activity [33] 100% | residual activity [34] 100% | residual activity [35] 88.4% | residual activity [36] 80.2% | residual activity [37] 86.5% | residual activity [38] 95.6% | residual activity [39] 56.3% | residual activity [40] 83.6% | residual activity [41] 62.5% | residual activity [42] 100% | residual activity [43] 100% | residual activity [44] 81.4% | residual activity [45] 65.3%
